Results as given in patent US20080194585A1, “Fungicidal Pyrazine Derivatives” (priority 2005, published 2008).
Marks after values point to notes of the source that are not given here.

Tests used:
Details in all cases: 40 ppm (marked *); 100 = 100% disease control, 0 = no control
Plasmopara viticola = assay: Test D: grape downy mildew, spray after inoculation of grape seedlings; type: in vivo
Source text: Upon removal, disease ratings were made. […] A dash (-) indicates no test results.

Phytophthora infestans = assay: whole plant or invertebrate; type: in vivo
Septoria tritici = assay: Test J: wheat leaf blotch, preventive spray on wheat seedlings; type: in vivo
Source text: A dash (-) indicates no test results.

fusarium graminearium = assay: Test I: wheat head scab, preventive spray on wheat seedlings
Experimental: (the causal agent of wheat head scab) and incubated in a saturated atmosphere at 20° C. for 72 h, and then moved to a growth chamber at 22° C. for 5 days, after which disease ratings were made.

[1] = tested on: Puccinia recondita f. sp. tritici; assay: Test K: wheat leaf rust, preventive spray on wheat seedlings
Botrytis cinerea = assay: Test E: tomato botrytis, preventive spray on tomato seedlings
Septoria nodorum = assay: Test H: wheat glum blotch, preventive spray on wheat seedlings
Experimental: (the causal agent of wheat glum blotch) and incubated in a saturated atmosphere at 20° C. for 48 h, and then moved to a growth chamber at 22° C. for 5 days, after which disease ratings were made.

[2] = tested on: Erysiphe graminis f. sp. tritici; assay: Test L: wheat powdery mildew, preventive spray on wheat seedlings
Sclerotinia sclerotiorum = assay: Test C: cucumber white mold, preventive spray on cucumber seedlings
Pythium aphanidermatum = assay: Test A: bluegrass pythium blight, preventive spray on bluegrass seedlings
Rhizoctonia oryzae = assay: Test G: turf brown patch, preventive spray on creeping bent grass seedlings
Experimental: (the causal agent of turf brown patch) and incubated in a saturated atmosphere at 27° C. for 24 h, and then moved to a growth chamber at 27° C. for 5 days, after which disease ratings were made.

[3] = tested on: Colletotrichum orbiculare; assay: Test B: cucumber Colletotrichum anthracnose, preventive spray on cucumber seedlings

Structure (SMILES) | Test D disease control rating (Plasmopara viticola) | Test F disease control rating (Phytophthora infestans) | Test J disease control rating (Septoria tritici) | Test I disease control rating (fusarium graminearium) | Test K disease control rating [1] | Test E disease control rating (Botrytis cinerea) | Test H disease control rating (Septoria nodorum) | Test L disease control rating [2] | Test C disease control rating (Sclerotinia sclerotiorum) | Test A disease control rating (Pythium aphanidermatum) | Test G disease control rating (Rhizoctonia oryzae) | Test B disease control rating [3]
Cc1cc(C)c(-c2c(Cl)nc(-n3ccc(C)n3)c(=O)n2CC(C)C)c(C)c1 [compound 258] | 0* % | 0* % | 82* % | 0* % | 41* % | 59* % | 0* % | 0* % | 49* % | 0* % | 0* % | 0* %
CCCCn1c(-c2ccc(F)cc2Cl)c(Cl)nc(-n2ccc(C)n2)c1=O [compound 265] | 0* % | 0* % | 100* % | 0* % | 94* % | 100* % | 95* % | 91* % | 0* % | 0* % | 50* % | 90* %
CCCCn1c(-c2ccc(F)cc2Cl)c(Cl)nc(-n2cccn2)c1=O [compound 266] | 0* % | 0* % | 100* % | 0* % | 99* % | 100* % | 99* % | 99* % | 0* % | 0* % | 90* % | 99* %
CCCCn1c(-c2ccc(F)cc2Cl)c(Cl)nc(N2CCC=N2)c1=O [compound 267] | 0* % | 0* % | 60* % | 0* % | 68* % | 100* % | 0* % | 0* % | 0* % | 0* % | 0* % | 0* %
O=c1c(-n2cccn2)nc(Cl)c(-c2c(F)cccc2F)n1CCO [compound 268] | 0* % | 0* % | 7* % | 0* % | 82* % | 0* % | 0* % | 0* % | 0* % | 0* % | 0* % | 0* %
O=c1c(-n2cccn2)nc(Cl)c(-c2c(F)cccc2F)n1CCF [compound 269] | 0* % | 0* % | 99* % | 0* % | 91* % | 0* % | 100* % | 0* % | 0* % | 0* % | 0* % | 0* %
O=c1c(-n2cccn2)nc(Cl)c(-c2c(F)cccc2F)n1CCBr [compound 270] | 24* % | 0* % | 95* % | 0* % | 94* % | 85* % | 0* % | 0* % | 0* % | 0* % | 0* % | 0* %
O=c1c(-n2cccn2)nc(Cl)c(-c2c(F)cccc2F)n1Cc1ccc(F)cc1 [compound 272] | 57* % | 0* % | 100* % | 0* % | 100* % | 100* % | 99* % | 100* % | 44* % | 0* % | 59* % | 95* %
O=c1c(-n2cncn2)nc(Cl)c(-c2c(F)cccc2F)n1Cc1ccc(F)cc1 [compound 273] | 0* % | 0* % | 92* % | 0* % | 86* % | 99* % | 0* % | 0* % | 0* % | 0* % | 0* % | 0* %
N#Cc1nc(Cl)c(-c2c(F)cccc2F)n(Cc2ccc(F)cc2)c1=O [compound 274] | 0* % | 0* % | 45* % | 0* % | 91* % | 0* % | 0* % | 71* % | 0* % | 0* % | 0* % | 0* %
O=c1c(-n2cccn2)nc(Cl)c(-c2c(F)cccc2F)n1Cc1cccc(Cl)c1 [compound 275] | 0* % | 0* % | 100* % | 0* % | 97* % | 100* % | 99* % | 61* % | 0* % | 0* % | 0* % | 47* %
O=c1c(-n2cncn2)nc(Cl)c(-c2c(F)cccc2F)n1Cc1cccc(Cl)c1 [compound 276] | 0* % | 0* % | 100* % | 0* % | 94* % | 98* % | 78* % | 0* % | 0* % | 0* % | 0* % | 0* %
N#Cc1nc(Cl)c(-c2c(F)cccc2F)n(Cc2cccc(Cl)c2)c1=O [compound 277] | 0* % | 0* % | 63* % | 0* % | 41* % | 0* % | 0* % | 0* % | 0* % | 0* % | 0* % | 0* %
Cc1ccn(-c2nc(Cl)c(-c3c(F)cccc3F)n(-c3ccccc3)c2=O)n1 [compound 278] | 31* % | 0* % | 100* % | 0* % | 100* % | 100* % | 100* % | 99* % | 0* % | 0* % | 92* % | 88* %
Cc1ccn(-c2nc(Cl)c(-c3c(F)cccc3F)n(Cc3ccccc3)c2=O)n1 [compound 279] | 0* % | 0* % | 100* % | 0* % | 100* % | 99* % | 98* % | 99* % | 0* % | 0* % | 41* % | 78* %
Cc1ccn(-c2nc(Cl)c(-c3c(F)cccc3F)n(Cc3ccccc3F)c2=O)n1 [compound 280] | 0* % | 0* % | 100* % | 0* % | 98* % | 99* % | 96* % | 69* % | 0* % | 0* % | 0* % | 57* %
